Broadly, the IC50 is the concentration that inhibits the measured activity by half. A lower IC50 goes with greater potency in that assay.

The target of the experiment is T1, Prostacyclin Receptors (IP Receptors) of Human Thrombocyte Membranes (Homo sapiens, UniProt P43119).
T1 construct: Thrombocyte membranes are obtained by centrifuging 50 ml of human blood; tissue Maco Pharma, Langen (buffy coats); host or cells: human thrombocyte (platelet) membranes from human blood
T1 sequence (P43119 whole entry): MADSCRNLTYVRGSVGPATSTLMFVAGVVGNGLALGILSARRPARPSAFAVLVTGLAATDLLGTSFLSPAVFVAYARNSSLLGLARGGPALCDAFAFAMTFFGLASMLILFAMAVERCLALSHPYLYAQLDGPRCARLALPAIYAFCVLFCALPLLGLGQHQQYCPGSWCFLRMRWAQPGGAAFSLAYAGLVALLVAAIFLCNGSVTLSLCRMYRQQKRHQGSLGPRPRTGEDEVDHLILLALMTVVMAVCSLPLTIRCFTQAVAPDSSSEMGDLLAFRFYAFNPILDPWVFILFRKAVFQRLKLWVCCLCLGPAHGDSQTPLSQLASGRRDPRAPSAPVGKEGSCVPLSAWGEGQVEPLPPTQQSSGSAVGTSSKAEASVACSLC
Put plainly: Binding to prostacyclin receptors (IP receptors) of human thrombocyte membranes, 3H-Iloprost displacement. To be noted: 3 nM 3H-Iloprost, 60 min, room temperature. As to the method:
B-1. Studies of Binding to Prostacyclin Receptors (IP Receptors) of Human Thrombocyte Membranes
Thrombocyte membranes are obtained by centrifuging 50 ml of human blood (Buffy coats with CDP Stabilizer, from Maco Pharma, Langen) for 20 min at 160×g. Remove the supernatant (platelet-rich plasma, PRP) and then centrifuge again at 2000×g for 10 min at room temperature. Resuspend the sediment in 50 mM tris(hydroxymethyl)amino-methane, which has been adjusted to a pH of 7.4 with 1 N hydrochloric acid, and store at −20° C. overnight. On the next day, centrifuge the suspension at 80 000×g and 4° C. for 30 min. Discard the supernatant. Resuspend the sediment in 50 mM tris(hydroxy-methyl)aminomethane/hydrochloric acid, 0.25 mM ethylene diamine tetraacetic acid (EDTA), pH 7.4, and then centrifuge once again at 80 000×g and 4° C. for 30 min. Take up the membrane sediment in binding buffer (50 mM tris(hydroxymethyl)-aminomethane/hydrochloric acid, 5 mM magnesium chloride, pH 7.4) and store at −70° C. until the binding test.
For the binding test, incubate 3 nM ^3H-Iloprost (592 GBq/mmol, from AmershamBioscience) for 60 min with 300-1000 μg/ml of human thrombocyte membranes per charge (max. 0.2 ml) in the presence of the test substances at room temperature. After stopping, add cold binding buffer to the membranes and wash with 0.1% bovine serum albumin. After adding Ultima Gold Scintillator, quantify the radioactivity bound to the membranes using a scintillation counter. The nonspecific binding is defined as radioactivity in the presence of 1 μM Iloprost (from Cayman Chemical, Ann Arbor) and is as a rule <25% of the bound total radioactivity. The binding data (IC50 values) are determined using the program GraphPad Prism Version 3.02.
Turning to `CCCNC(=O)/C(C)=C/c1c(-c2ccccc2)oc2ncnc(O[C@H](C)CCCCC(=O)O)c12` [Example 21, (6R)-6-({5-[(1E)-2-methyl-3-oxo-3-(propylamino)prop-1-en-1-yl]-6-phenylfuro[2,3-d]pyrimidin-4-yl}oxy)heptanoic acid], the IC50 is 132 nM.
The same measure for `CCCC(=O)/C=C/c1c(-c2ccccc2)oc2ncnc(O[C@H](C)CCCCC(=O)O)c12` [Example 17]: 1050 nM.
Molecule `C=CCOC(=O)/C=C/c1c(-c2ccccc2)oc2ncnc(O[C@H](C)CCCCC(=O)O)c12` [Example 15] came in with an IC50 of 545 nM.
Take `CCOC(=O)/C(C)=C/c1c(-c2ccccc2)oc2ncnc(O[C@H](C)CCCCC(=O)O)c12` [Example 16, (6R)-6-({5-[(1E)-3-ethoxy-2-methyl-3-oxoprop-1-en-1-yl]-6-phenylfuro[2,3-d]pyrimidin-4-yl}oxy)heptanoic acid]: the IC50 is 13 nM.

Source of the values: patent US20100267749A1, “TRISUBSTITUTED FUROPYRIMIDINES AND USE THEREOF” (BAYER SCHERING PHARMA AKTIENGESELLSCHAFT, priority 2007, published 2010).
